This is an account of results in patent US20250326771A1, “PIPERAZINE DERIVATIVES USEFUL IN HIV THERAPY” (VIIV HEALTHCARE COMPANY, priority 2022, published 2025).

Assay [1] has as its system Jurkat HIV-luciferase clones. Briefly: Jurkat latency reversal assay. Type of assay: cell-based. Conditions: Homo sapiens, 48 h; Jurkat latency reversal assay potency; read-out: Jurkat pEC50 (converted). How it is done: Jurkat HIV-luciferase clones were maintained in RPMI medium 1640 (Gibco by Life Technologies) containing 10% (vol/vol) fetal bovine serum (SAFC/Sigma-Aldrich) and 25 units/mL penicillin, 25 units/mL streptomycin (Gibco by Life Technologies), and were split 1:4 every 3 to 4 days to maintain a cell density of ˜0.3 to 1 million cells/mL. The Jurkat clones were maintained with the addition of 500 nM EFV in the medium. Three Jurkat cell clones (C16, 115, and N6), each harboring one or two integrated HIV proviruses expressing the luciferase reporter gene, were added at equal amounts for a total of 5,000 cells per well to 384-well plates containing compound titrations. Dose-response testing was performed on compounds dissolved in dimethyl sulfoxide (DMSO; Fisher Scientific, Merelbeke, Belgium) dispensed in duplicate serial 3-fold, 14-point titrations using a D300e Digital Droplet Dispenser (Hewlett-Packard) to give final assay concentrations of 10 μM to […] in 50 μL of medium at 0.5% DMSO (vol/vol) final concentration. Cells and compound were incubated at 37° C. for 48 hours, unless otherwise indicated, followed by the addition of 20 μL of Steady-Glo® Luciferase (Promega). Luminescence resulting from the induction of the virally expressed luciferase was measured using an EnVision 2102 Multilabel Plate Reader (Perkin Elmer). Dose-response relationships were analyzed with GraphPad PRISM 6 using a four-parameter logistic regression model to calculate the concentration of compound that gives half-maximal response (EC50) and the maximal percent activation compared to the vehicle control.

The next assay deals with cIAP1-BIR3 (Homo sapiens (Human), UniProt Q13490). As to the kind of experiment: BIR binding assay (FRET competition), cIAP1 BIR3. How it is done: (§1) The BIR domain binding assays are FRET based competition assays that utilize His-tagged versions of each of the BIR2 and BIR3 domains from cIAP1, cIAP2, and XIAP (each domain assayed separately) each at a custom optimal concentration and a probe, 200 nM SMAC/DIABLO peptide […] labelled with AlexaFluor647 (part #crb 1110326h, Discovery Peptides). The assay is conducted in 50 mM HEPES, […], 1 mM CHAPS, 5% Glycerol, 1 mM DTT, in dI water with a final pH of 7.4 and final volume of 20 uL. Final protein domain concentrations are: 50 nM cIAP1-BIR3 (Part #APT-11-370 Reaction Biology), 100 nM XIAP-BIR3 (Part #APT-11-351 Reaction Biology), 200 nM XIAP-BIR2 (Part #APT-11-470 Reaction Biology), 325 nM cIAP2-BIR2 (Part #APT-11-489 Reaction Biology), 50 nM cIAP2-BIR3 (Part #APT-11-372 Reaction Biology), 325 nM cIAP1-BIR2 (Part #APT-11-487 Reaction Biology). Compounds were plated using a HP Tecan D300 printer in a final total volume of 202 nl and DMSO concentration normalized across the 15-point, 3-fold dilution series. Peptide and probe were prepared at 2× relative to the concentrations above in binding buffer, 10 uL added to the prepared compound plates, and incubated for 60 minutes. LANCE Eu-W1024 (part #AD0401 Perkin Elmer #, vendor) was prepared at 2× concentration in binding buffer for final concentration of 2 nM, 10 uL added to each well, and plates incubated for 30 minutes. Plates were read on an ENVISION multifunction plate reader with […] laser excitation to obtain the 615 nm/665 nm emission ratio as indicative of probe:protein proximity. Data was analyzed using GraphPad PRISM and curves fit using log(inhibitor) vs. response—Variable slope (four […] method to obtain IC50 and pIC50 values.

For the next assay, the target named is cIAP2-BIR3 (Homo sapiens (Human), UniProt Q13489). Briefly: BIR binding assay (FRET competition), cIAP2 BIR3. How it is done:
as §1

The target of a further assay is XIAP-BIR3 (Homo sapiens (Human), UniProt P98170). Briefly: BIR binding assay (FRET competition), XIAP BIR3. As for the experimental part: as §1
XIAP-BIR3, sequence (P98170 241-356): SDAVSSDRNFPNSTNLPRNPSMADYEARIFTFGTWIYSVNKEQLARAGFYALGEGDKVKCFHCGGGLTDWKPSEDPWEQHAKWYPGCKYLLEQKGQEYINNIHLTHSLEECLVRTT

cIAP2-BIR3, sequence (Q13489 238-349): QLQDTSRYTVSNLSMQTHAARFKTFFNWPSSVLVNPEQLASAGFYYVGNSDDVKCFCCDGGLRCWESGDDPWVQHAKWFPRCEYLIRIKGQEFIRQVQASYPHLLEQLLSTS
cIAP1-BIR3, sequence (Q13490 253-363): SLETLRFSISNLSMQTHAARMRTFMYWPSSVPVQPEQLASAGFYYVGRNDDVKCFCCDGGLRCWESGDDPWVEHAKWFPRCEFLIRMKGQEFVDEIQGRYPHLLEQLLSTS

As to `C[C@@H]1CN(CC(=O)N2CC(C)(C)c3[nH]c(=O)c(Cc4ccc(F)cc4)cc32)[C@@H](CN2CCO[C@H](COc3ccc(C(C)(C)c4ccc(OC[C@@H]5CN(C[C@H]6CN[C@H](C)CN6CC(=O)N6CC(C)(C)c7[nH]c(=O)c(Cc8ccc(F)cc8)cc76)CCO5)cc4)cc3)C2)CN1` [Example 56, 1,1′-(2,2′-((3R,3′R,6R,6′R)-(((2S,2'S)-(((propane-2,2-diylbis(4,1-phenylene))bis(oxy))bis(methylene))bis(morpholine-2,4-diyl))bis(methylene))bis(3-methylpiperazine-6,1-diyl))bis(acetyl))bis(6-(4-fluorobenzyl)-3,3-dimethyl-1,2,3,4-tetrahydro-5H-pyrrolo[3,2-b]pyridin-5-one)], the EC50 in assay [1] is 12.6 to 63.1 nM. Moreover, the IC50 at cIAP1-BIR3, at cIAP2-BIR3 and at XIAP-BIR3 was 31.6 to 501 nM in each case.
On to `C[C@@H]1CN(CC(=O)N2CC(C)(C)c3[nH]c(=O)c(Cc4ccc(F)cc4)cc32)[C@@H](CN2CCN(S(=O)(=O)c3ccc(Oc4ccc(S(=O)(=O)N5CCN(C[C@H]6CN[C@H](C)CN6CC(=O)N6CC(C)(C)c7[nH]c(=O)c(Cc8ccc(F)cc8)cc76)[C@H](C)C5)cc4)cc3)C[C@H]2C)CN1` [Example 30, 2,2′-((3R,3′R,6R,6′R)-(((2R,2′R)-(oxybis(4,1-phenylenesulfonyl))bis(2-methylpiperazine-4,1-diyl))bis(methylene))bis(3-methylpiperazine-6,1-diyl))bis(1-(6-(4-fluorobenzyl)-3,3-dimethyl-5-oxo-2,3,4,5-tetrahydro-1H-pyrrolo[3,2-b]pyridin-1-yl)ethan-1-one)], for which the EC50 in assay [1] was 316 to 3310 nM. Moreover, the IC50 (in general, the concentration that gives 50% inhibition) was 31.6 to 501 nM at cIAP1-BIR3, 15.8 to 31.6 nM on cIAP2-BIR3 and 31.6 to 501 nM at XIAP-BIR3.
Take `C[C@@H]1CN(CC(=O)N2CC(C)(C)c3[nH]c(=O)c(Cc4ccc(F)cc4)cc32)[C@@H](CN2CCC(CCCOc3cccc(OCCCC4CCN(C[C@H]5CN[C@H](C)CN5CC(=O)N5CC(C)(C)c6[nH]c(=O)c(Cc7ccc(F)cc7)cc65)CC4)c3)CC2)CN1` [Example 109, 1,1′-(2,2′-((3R,3′R,6R,6′R)-((((1,3-phenylenebis(oxy))bis(propane-3,1-diyl))bis(piperidine-4,1-diyl))bis(methylene))bis(3-methylpiperazine-6,1-diyl))bis(acetyl))bis(6-(4-fluorobenzyl)-3,3-dimethyl-1,2,3,4-tetrahydro-5H-pyrrolo[3,2-b]pyridin-5-one)]: the EC50 in assay [1] is 12.6 to 63.1 nM. The values for the 50% inhibitory concentration (IC50) at cIAP1-BIR3 and at cIAP2-BIR3 were 15.8 to 31.6 nM and 7.94 to 15.8 nM, respectively.
Regarding `COc1cc(Cl)ccc1Cc1cc2c([nH]c1=O)C(C)(C)CN2C(=O)CN1C[C@@H](C)NC[C@@H]1CN1CCO[C@H](C(=O)NCc2ccc(CNC(=O)[C@@H]3CN(C[C@H]4CN[C@H](C)CN4CC(=O)N4CC(C)(C)c5[nH]c(=O)c(Cc6ccc(Cl)cc6OC)cc54)CCO3)cc2)C1` [Compound 169, (2S,2′S)-N,N′-(1,4-phenylenebis(methylene)) bis(4-(((2R,5R)-1-(2-(6-(4-chloro-2-methoxybenzyl)-3,3-dimethyl-5-oxo-2,3,4,5-tetrahydro-1H-pyrrolo[3,2-b]pyridin-1-yl)-2-oxoethyl)-5-methylpiperazin-2-yl)methyl)morpholine-2-carboxamide)], the EC50 in assay [1] was 12.6 to 63.1 nM. The figures for the IC50 on cIAP1-BIR3, on cIAP2-BIR3 and at XIAP-BIR3 were 7.94 to 15.8 nM, 1.38 to 7.94 nM and 31.6 to 501 nM, respectively.
With `C[C@@H]1CN(CC(=O)N2CC(C)(C)c3[nH]c(=O)c(Cc4ccc(F)cc4)cc32)[C@@H](CN2CCO[C@H](COc3ccc(Cc4ccc(OC[C@@H]5CN(C[C@H]6CN[C@H](C)CN6CC(=O)N6CC(C)(C)c7[nH]c(=O)c(Cc8ccc(F)cc8)cc76)CCO5)cc4)cc3)C2)CN1` [Example 53, 1,1′-(2,2′-((3R,3′R,6R,6′R)-(((2S,2'S)-(((methylenebis(4,1-phenylene))bis(oxy))bis(methylene))bis(morpholine-2,4-diyl))bis(methylene))bis(3-methylpiperazine-6,1-diyl))bis(acetyl))bis(6-(4-fluorobenzyl)-3,3-dimethyl-1,2,3,4-tetrahydro-5H-pyrrolo[3,2-b]pyridin-5-one)], in assay [1], the EC50 was 12.6 to 63.1 nM. In addition, the IC50 at cIAP1-BIR3, on cIAP2-BIR3 and at XIAP-BIR3 was 31.6 to 501 nM each time.
Take `C[C@@H]1CN(CC(=O)N2CC(C)(C)c3[nH]c(=O)c(Cc4ccc(F)cc4)cc32)[C@@H](CN2CCC(CCCC3CCN(C[C@H]4CN[C@H](C)CN4CC(=O)N4CC(C)(C)c5[nH]c(=O)c(Cc6ccc(F)cc6)cc54)CC3)CC2)CN1` [Example 94, 1,1′-(2,2′-((3R,3′R,6R,6′R)-((propane-1,3-diylbis(piperidine-4,1-diyl))bis(methylene))bis(3-methylpiperazine-6,1-diyl))bis(acetyl))bis(6-(4-fluorobenzyl)-3,3-dimethyl-1,2,3,4-tetrahydro-5H-pyrrolo[3,2-b]pyridin-5-one)]: the EC50 in assay [1] is 0.49 to 12.6 nM. In addition, the values for the half-maximal inhibitory concentration (IC50) on cIAP1-BIR3, at cIAP2-BIR3 and at XIAP-BIR3 were 7.94 to 15.8 nM, 7.94 to 15.8 nM and 15.8 to 31.6 nM, respectively.
As for `C[C@@H]1CN(CC(=O)N2CC(C)(C)c3[nH]c(=O)c(Cc4ccc(F)cc4)cc32)[C@@H](CN2CCO[C@H](COc3ccc(C(=O)c4ccc(OC[C@@H]5CN(C[C@H]6CN[C@H](C)CN6CC(=O)N6CC(C)(C)c7[nH]c(=O)c(Cc8ccc(F)cc8)cc76)CCO5)cc4)cc3)C2)CN1` [Example 54, 1,1′-(2,2′-((3R,3′R,6R,6′R)-(((2S,2'S)-(((carbonylbis(4,1-phenylene))bis(oxy))bis(methylene))bis(morpholine-2,4-diyl))bis(methylene))bis(3-methylpiperazine-6,1-diyl))bis(acetyl))bis(6-(4-fluorobenzyl)-3,3-dimethyl-1,2,3,4-tetrahydro-5H-pyrrolo[3,2-b]pyridin-5-one)], the EC50 in assay [1] was 0.49 to 12.6 nM. Moreover, the IC50 on cIAP1-BIR3, on cIAP2-BIR3 and on XIAP-BIR3 was 15.8 to 31.6 nM throughout.
For the compound `C[C@@H]1CN(CC(=O)N2CC(C)(C)c3[nH]c(=O)c(Cc4ccc(Cl)cc4Cl)cc32)[C@@H](CN2CCO[C@H](COc3cccc(OC[C@@H]4CN(C[C@H]5CN[C@H](C)CN5CC(=O)N5CC(C)(C)c6[nH]c(=O)c(Cc7ccc(Cl)cc7Cl)cc65)CCO4)c3)C2)CN1` [Compound 187], the EC50 in assay [1] was 0.49 to 12.6 nM. Besides, the figures for the IC50 on cIAP1-BIR3, on cIAP2-BIR3 and on XIAP-BIR3 were 7.94 to 15.8 nM, 7.94 to 15.8 nM and 31.6 to 501 nM, respectively.
Regarding `C[C@@H]1CN(CC(=O)N2CC(C)(C)c3[nH]c(=O)c(Cc4ccc(F)cc4)cc32)[C@@H](CN2CCO[C@H](COc3ccc(C(C)(C)c4cccc(C(C)(C)c5ccc(OC[C@@H]6CN(C[C@H]7CN[C@H](C)CN7CC(=O)N7CC(C)(C)c8[nH]c(=O)c(Cc9ccc(F)cc9)cc87)CCO6)cc5)c4)cc3)C2)CN1` (stereo in doubt) [Example 61, 1,1′-(2,2′-((3R,3′R,6R,6′R)-(((2S,2'S)-((((1,3-phenylenebis(propane-2,2-diyl))bis(4,1-phenylene))bis(oxy))bis(methylene))bis(morpholine-2,4-diyl))bis(methylene))bis(3-methylpiperazine-6,1-diyl))bis(acetyl))bis(6-(4-fluorobenzyl)-3,3-dimethyl-1,2,3,4-tetrahydro-5H-pyrrolo[3,2-b]pyridin-5-one)], the EC50 in assay [1] is 12.6 to 63.1 nM. Also, the IC50 on cIAP1-BIR3, at cIAP2-BIR3 and at XIAP-BIR3 was 31.6 to 501 nM throughout.
